# Source: ChEMBL document CHEMBL4706659, “Design, synthesis and biological evaluation of novel 2,4-diaryl pyrimidine derivatives as selective EGFR inhibitors” (Eur J Med Chem, 2021)
# Experiments:
# [1] = Selectivity ratio of IC50 for HLF cells to IC50 for antiproliferative activity against human NCI-H1975 cells
# [2] = Selectivity ratio of IC50 for human L02 cells to IC50 for antiproliferative activity against human NCI-H1975 cells; assay type: toxicity, cell-based; conditions: L02 cells versus NCI-H1975 cells, read-out: Ratio IC50
# Homo sapiens = species on record: Homo sapiens; assay: Selectivity ratio of IC50 for inhibition of recombinant human GST-tagged EGFR expressed in baculovirus expression system to IC50 for inhibition of recombinant human GST-tagged EGFR T790M/L858R double mutant (668 to 1210 residues) expressed in baculovirus expression system
# [3] = Tmax in Sprague-Dawley rat at 10 mg/kg, po administered as single dose; assay type: ADME, organism-based; conditions: in vivo
# [4] = Selectivity ratio of IC50 for antiproliferative activity against human NCI-H292 cells harboring wild-type EGFR to IC50 for antiproliferative activity against human NCI-H1975 cells harboring EGFR T790M/L858R mutant; assay type: functional
# NCI-H1975 [5] = assay: Induction of mitochondrial membrane potential loss in human NCI-H1975 cells harboring EGFR T790M/L858R mutant measured after 24 hrs by JC1 staining based fluorescence microscopic analysis; assay type: functional, cell-based; conditions: dose 1-10 nM
# [6] = MRT in Sprague-Dawley rat at 2 mg/kg, iv administered as single dose; assay type: ADME, organism-based; conditions: in vivo
# [7] = Clearance in Sprague-Dawley rat at 2 mg/kg, iv administered as single dose; assay type: ADME, organism-based; conditions: in vivo
# NCI-H1975 [8] = assay: Induction of apoptosis in human NCI-H1975 cells harboring EGFR T790M/L858R mutant assessed as late apoptotic cells at 10 nM measured after 72 hrs by Annexin-V-FITC/propidium iodide staining based flow cytometry (reference value: 0.13%); assay type: functional
# [9] = AUC (0 to infinity) in Sprague-Dawley rat at 10 mg/kg, po administered as single dose; assay type: ADME, organism-based; design: time infinity, route oral, dose 10 mg/kg; conditions: in vivo
# NCI-H1975 [10] = assay: Induction of apoptosis in human NCI-H1975 cells harboring EGFR T790M/L858R mutant assessed as viable cells at 10 nM measured after 72 hrs by Annexin-V-FITC/propidium iodide staining based flow cytometry (reference value: 98.66%); assay type: functional; conditions: read-out: Activity
# [11] = Cytotoxicity against HLF cells assessed as reduction in cell viability by MTT assay; assay type: cell-based; conditions: Homo sapiens
# NCI-H1975 [12] = assay: Induction of mitochondrial membrane potential loss in human NCI-H1975 cells harboring EGFR T790M/L858R mutant assessed as cells with intact mitochondrial membrane potential at 10 nM measured after 24 hrs by JC1 staining based fluorescence microscopic analysis (reference value: 94.51%); assay type: functional
# [13] = Selectivity ratio of IC50 for HEK293-A cells to IC50 for antiproliferative activity against human NCI-H1975 cells; assay type: toxicity, cell-based; conditions: HEK293-A cells versus NCI-H1975 cells, read-out: Ratio IC50
# NCI-H1975 [14] = assay: Induction of mitochondrial membrane potential loss in human NCI-H1975 cells harboring EGFR T790M/L858R mutant assessed as cell population with mitochondrial membrane potential collapse at 5 nM measured after 24 hrs by JC1 staining based fluorescence microscopic analysis (reference value: 5.49%); assay type: functional
# NCI-H1975 [15] = assay: Induction of apoptosis in human NCI-H1975 cells harboring EGFR T790M/L858R mutant assessed as late apoptotic cells at 1 nM measured after 48 hrs by Annexin-V-FITC/propidium iodide staining based flow cytometry (reference value: 0.04%); assay type: functional
# NCI-H1975 [16] = assay: Induction of mitochondrial membrane potential loss in human NCI-H1975 cells harboring EGFR T790M/L858R mutant assessed as cell population with mitochondrial membrane potential collapse at 10 nM measured after 24 hrs by JC1 staining based fluorescence microscopic analysis (reference value: 5.49%); assay type: functional
# [17] = target: Epidermal growth factor receptor (Homo sapiens, UniProt P00533); assay: Inhibition of recombinant human GST-tagged EGFR expressed in baculovirus expression system using tyr-04 peptide as substrate incubated for 60 mins in presence of ATP by Z'-LYTE assay
# NCI-H1975 [18] = assay: Antiproliferative activity against human NCI-H1975 cells harboring EGFR T790M/L858R mutant by MTT assay; assay type: functional, cell-based
# HK-2 = assay: Cytotoxicity against HK-2 cells assessed as reduction in cell viability by MTT assay; assay type: cell-based; conditions: Homo sapiens
# [19] = target: Epidermal growth factor receptor (Homo sapiens, UniProt P00533, L858R/T790M); assay: Inhibition of recombinant human GST-tagged EGFR T790M/L858R double mutant (668 to 1210 residues) expressed in baculovirus expression system using Tyr 4 as substrate incubated for 60 mins by Z'-Lyte assay
# NCI-H1975 [20] = assay: Induction of apoptosis in human NCI-H1975 cells harboring EGFR T790M/L858R mutant assessed as viable cells at 5 nM measured after 72 hrs by Annexin-V-FITC/propidium iodide staining based flow cytometry (reference value: 98.66%); assay type: functional; conditions: read-out: Activity
# NCI-H1975 [21] = assay: Induction of mitochondrial membrane potential loss in human NCI-H1975 cells harboring EGFR T790M/L858R mutant assessed as cells with intact mitochondrial membrane potential at 5 nM measured after 24 hrs by JC1 staining based fluorescence microscopic analysis (reference value: 94.51%); assay type: functional
# NCI-H1975 [22] = assay: Induction of apoptosis in human NCI-H1975 cells harboring EGFR T790M/L858R mutant assessed as viable cells at 5 nM measured after 48 hrs by Annexin-V-FITC/propidium iodide staining based flow cytometry (reference value: 98.63%); assay type: functional; conditions: read-out: Activity
# NCI-H1975 [23] = assay: Induction of apoptosis in human NCI-H1975 cells harboring EGFR T790M/L858R mutant assessed as early apoptotic cells at 5 nM measured after 48 hrs by Annexin-V-FITC/propidium iodide staining based flow cytometry (reference value: 0.82%); assay type: functional
# [24] = MRT in Sprague-Dawley rat at 10 mg/kg, po administered as single dose; assay type: ADME, organism-based; conditions: in vivo
# NCI-H1975 [25] = assay: Induction of apoptosis in human NCI-H1975 cells harboring EGFR T790M/L858R mutant assessed as viable cells at 10 nM measured after 48 hrs by Annexin-V-FITC/propidium iodide staining based flow cytometry (reference value: 98.63%); assay type: functional; conditions: read-out: Activity
# [26] = Selectivity ratio of IC50 for HK-2 cells to IC50 for antiproliferative activity against human NCI-H1975 cells
# NCI-H1975 [27] = assay: Induction of apoptosis in human NCI-H1975 cells harboring EGFR T790M/L858R mutant assessed as necrotic cells at 1 nM measured after 48 hrs by Annexin-V-FITC/propidium iodide staining based flow cytometry (reference value: […]); assay type: functional
# NCI-H1975 [28] = assay: Induction of apoptosis in human NCI-H1975 cells harboring EGFR T790M/L858R mutant assessed as late apoptotic cells at 5 nM measured after 48 hrs by Annexin-V-FITC/propidium iodide staining based flow cytometry (reference value: 0.04%); assay type: functional
# NCI-H1975 [29] = assay: Induction of apoptosis in human NCI-H1975 cells harboring EGFR T790M/L858R mutant assessed as early apoptotic cells at 1 nM measured after 48 hrs by Annexin-V-FITC/propidium iodide staining based flow cytometry (reference value: 0.82%); assay type: functional
# Epidermal growth factor receptor (Homo sapiens, UniProt P00533), sequence (P00533 whole entry): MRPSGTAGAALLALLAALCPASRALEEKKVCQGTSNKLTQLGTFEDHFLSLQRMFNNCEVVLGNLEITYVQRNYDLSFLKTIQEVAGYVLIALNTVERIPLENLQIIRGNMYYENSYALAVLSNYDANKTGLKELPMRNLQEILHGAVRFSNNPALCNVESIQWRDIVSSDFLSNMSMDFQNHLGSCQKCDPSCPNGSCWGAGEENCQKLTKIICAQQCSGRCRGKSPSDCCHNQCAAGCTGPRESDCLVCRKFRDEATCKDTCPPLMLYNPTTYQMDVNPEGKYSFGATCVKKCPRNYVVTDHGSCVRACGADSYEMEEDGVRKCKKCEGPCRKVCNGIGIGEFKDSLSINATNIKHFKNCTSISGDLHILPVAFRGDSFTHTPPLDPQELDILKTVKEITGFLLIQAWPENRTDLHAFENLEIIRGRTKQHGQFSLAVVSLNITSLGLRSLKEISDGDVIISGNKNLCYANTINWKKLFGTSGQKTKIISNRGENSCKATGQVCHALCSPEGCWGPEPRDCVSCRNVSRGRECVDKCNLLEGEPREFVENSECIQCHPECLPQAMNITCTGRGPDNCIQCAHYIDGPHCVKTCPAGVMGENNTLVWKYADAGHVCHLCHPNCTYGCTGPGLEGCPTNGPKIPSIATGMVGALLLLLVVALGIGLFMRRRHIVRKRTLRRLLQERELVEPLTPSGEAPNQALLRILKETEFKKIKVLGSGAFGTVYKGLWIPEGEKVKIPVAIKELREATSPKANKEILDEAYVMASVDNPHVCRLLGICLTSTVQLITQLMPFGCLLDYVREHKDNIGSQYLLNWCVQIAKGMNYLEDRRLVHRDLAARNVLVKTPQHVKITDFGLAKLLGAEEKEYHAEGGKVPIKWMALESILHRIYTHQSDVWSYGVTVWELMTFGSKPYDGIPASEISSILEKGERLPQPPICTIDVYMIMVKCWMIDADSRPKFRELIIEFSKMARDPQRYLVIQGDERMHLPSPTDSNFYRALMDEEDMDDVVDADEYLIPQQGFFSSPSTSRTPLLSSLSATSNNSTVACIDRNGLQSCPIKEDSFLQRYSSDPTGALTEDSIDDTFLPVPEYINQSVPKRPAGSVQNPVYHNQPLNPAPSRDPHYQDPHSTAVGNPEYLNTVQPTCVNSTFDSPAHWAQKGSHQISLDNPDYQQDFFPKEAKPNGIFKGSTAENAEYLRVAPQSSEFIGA
# Epidermal growth factor receptor (Homo sapiens, UniProt P00533, L858R/T790M), sequence (P00533 25-1210 T790M/L858R limits assumed): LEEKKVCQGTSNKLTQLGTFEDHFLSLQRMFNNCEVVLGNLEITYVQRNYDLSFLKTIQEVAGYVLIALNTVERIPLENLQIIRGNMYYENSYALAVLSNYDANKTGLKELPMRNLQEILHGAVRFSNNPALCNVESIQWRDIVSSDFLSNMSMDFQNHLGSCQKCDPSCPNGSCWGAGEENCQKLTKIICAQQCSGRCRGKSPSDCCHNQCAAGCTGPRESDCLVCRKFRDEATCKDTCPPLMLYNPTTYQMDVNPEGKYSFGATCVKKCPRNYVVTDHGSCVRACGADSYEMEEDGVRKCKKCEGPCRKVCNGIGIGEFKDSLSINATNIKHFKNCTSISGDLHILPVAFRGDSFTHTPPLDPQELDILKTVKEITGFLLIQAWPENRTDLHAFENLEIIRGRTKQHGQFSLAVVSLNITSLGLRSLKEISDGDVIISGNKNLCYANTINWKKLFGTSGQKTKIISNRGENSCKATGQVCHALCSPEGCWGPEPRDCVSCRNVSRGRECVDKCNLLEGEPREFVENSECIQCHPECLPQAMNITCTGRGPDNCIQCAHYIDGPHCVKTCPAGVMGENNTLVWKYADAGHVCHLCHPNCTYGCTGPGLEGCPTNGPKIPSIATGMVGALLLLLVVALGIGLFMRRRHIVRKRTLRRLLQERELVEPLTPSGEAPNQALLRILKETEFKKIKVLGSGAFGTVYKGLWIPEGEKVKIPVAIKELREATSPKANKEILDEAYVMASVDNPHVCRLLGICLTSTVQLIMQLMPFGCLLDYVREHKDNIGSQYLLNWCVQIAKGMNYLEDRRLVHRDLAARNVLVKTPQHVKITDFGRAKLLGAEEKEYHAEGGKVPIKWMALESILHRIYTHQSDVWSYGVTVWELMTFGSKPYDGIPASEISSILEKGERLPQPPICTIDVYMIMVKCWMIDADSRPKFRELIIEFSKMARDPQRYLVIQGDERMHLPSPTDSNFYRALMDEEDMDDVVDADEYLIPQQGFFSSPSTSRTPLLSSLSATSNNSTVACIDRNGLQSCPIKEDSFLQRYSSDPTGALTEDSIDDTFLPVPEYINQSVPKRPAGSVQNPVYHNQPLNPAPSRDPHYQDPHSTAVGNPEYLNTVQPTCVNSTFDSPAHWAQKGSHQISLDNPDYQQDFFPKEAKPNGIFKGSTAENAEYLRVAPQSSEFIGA
structure (smiles),measurement,setting,value
C=CC(=O)Nc1cc(Nc2nccc(-c3cn(C4CC4)c4ccccc34)n2)c(OC)cc1[S+]([O-])CCN(C)C (stereo unspecified),Ratio IC50,[1],755
same,selectivity ratio,[2],584
same,Ratio IC50,Homo sapiens,15.8
same,Tmax,[3],1.67 h
same,Ratio IC50,[4],89.8
same,Activity,NCI-H1975 [5],Dose-dependent effect
same,MRT,[6],1.01 h
same,clearance,[7],98.1 mL/min/kg
same,Activity,NCI-H1975 [8],22.53%
same,AUC(0-inf),[9],722 ng·h/mL
same,viability at 0.01 µM,NCI-H1975 [10],27.4%
same,IC50,[11],6040 nM
same,Activity,NCI-H1975 [12],59.69%
same,selectivity ratio,[13],383
same,Activity,NCI-H1975 [14],26.9%
same,Activity,NCI-H1975 [15],1.64%
same,Activity,NCI-H1975 [16],40.31%
same,IC50,[17],4.1 nM
same,IC50,NCI-H1975 [18],8 nM
same,IC50,HK-2,5860 nM
same,IC50,[19],0.26 nM
same,viability at 0.005 µM,NCI-H1975 [20],52.5%
same,Activity,NCI-H1975 [21],72.38%
same,viability at 0.005 µM,NCI-H1975 [22],68.2%
same,Activity,NCI-H1975 [23],21.73%
same,MRT,[24],3.61 h
same,viability at 0.01 µM,NCI-H1975 [25],41.1%
same,Ratio IC50,[26],733
same,Activity,NCI-H1975 [27],5.52%
same,Activity,NCI-H1975 [28],3.64%
same,Activity,NCI-H1975 [29],10.89%
